Assay results reported in ChEMBL document CHEMBL5291721, “A preclinical secondary pharmacology resource illuminates target-adverse drug reaction associations of marketed drugs” (Nat Commun, 2023).

What was measured:
[1] = molecular target: Voltage-dependent L-type calcium channel subunit alpha-1C (Rattus norvegicus, UniProt P22002); format: functional
[2] = molecular target: T1, 5-hydroxytryptamine receptor 1A (Homo sapiens, UniProt P08908); format: functional, cell-based
T1 sequence (P08908 whole entry): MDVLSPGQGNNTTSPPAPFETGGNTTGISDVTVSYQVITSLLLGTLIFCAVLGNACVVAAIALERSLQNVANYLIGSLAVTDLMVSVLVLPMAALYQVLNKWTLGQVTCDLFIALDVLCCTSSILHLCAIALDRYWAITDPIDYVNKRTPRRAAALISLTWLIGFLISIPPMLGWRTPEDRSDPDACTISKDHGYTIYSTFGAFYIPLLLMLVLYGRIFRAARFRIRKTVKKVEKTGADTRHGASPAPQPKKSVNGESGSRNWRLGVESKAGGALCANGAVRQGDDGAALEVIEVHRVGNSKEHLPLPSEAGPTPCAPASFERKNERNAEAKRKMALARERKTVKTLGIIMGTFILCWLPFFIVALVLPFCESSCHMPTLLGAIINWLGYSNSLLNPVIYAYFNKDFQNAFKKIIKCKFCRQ

[3] = molecular target: 5-hydroxytryptamine receptor 2B (Homo sapiens, UniProt P41595); format: functional, cell-based
B2 bradykinin receptor = molecular target: T2, B2 bradykinin receptor (Homo sapiens, UniProt P30411)
T2 sequence (P30411 whole entry): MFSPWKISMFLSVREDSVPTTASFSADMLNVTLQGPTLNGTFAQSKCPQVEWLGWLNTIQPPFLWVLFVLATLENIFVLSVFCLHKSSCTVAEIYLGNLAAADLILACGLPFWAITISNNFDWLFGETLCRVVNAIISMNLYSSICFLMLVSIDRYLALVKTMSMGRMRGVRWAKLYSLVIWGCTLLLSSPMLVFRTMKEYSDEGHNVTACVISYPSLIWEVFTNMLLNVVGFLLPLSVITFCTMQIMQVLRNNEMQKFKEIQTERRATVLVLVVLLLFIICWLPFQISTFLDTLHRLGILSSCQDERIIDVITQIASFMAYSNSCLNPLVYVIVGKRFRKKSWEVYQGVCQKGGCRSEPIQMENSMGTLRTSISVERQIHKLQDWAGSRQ

Melanocortin receptor 3 = Melanocortin receptor 3 (Homo sapiens, UniProt P41968)
Melanocortin receptor 3, sequence (P41968 whole entry): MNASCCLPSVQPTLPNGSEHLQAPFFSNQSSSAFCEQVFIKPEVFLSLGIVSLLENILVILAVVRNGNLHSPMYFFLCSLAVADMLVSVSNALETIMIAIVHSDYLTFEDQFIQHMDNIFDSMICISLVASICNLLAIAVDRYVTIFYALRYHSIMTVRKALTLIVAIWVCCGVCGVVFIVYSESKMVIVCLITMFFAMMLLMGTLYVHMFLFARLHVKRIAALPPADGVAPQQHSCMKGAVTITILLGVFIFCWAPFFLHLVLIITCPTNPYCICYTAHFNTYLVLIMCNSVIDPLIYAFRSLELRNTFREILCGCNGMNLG

[4] = molecular target: T3, Muscarinic acetylcholine receptor M1 (Homo sapiens, UniProt P11229); format: functional
T3 sequence (P11229 whole entry): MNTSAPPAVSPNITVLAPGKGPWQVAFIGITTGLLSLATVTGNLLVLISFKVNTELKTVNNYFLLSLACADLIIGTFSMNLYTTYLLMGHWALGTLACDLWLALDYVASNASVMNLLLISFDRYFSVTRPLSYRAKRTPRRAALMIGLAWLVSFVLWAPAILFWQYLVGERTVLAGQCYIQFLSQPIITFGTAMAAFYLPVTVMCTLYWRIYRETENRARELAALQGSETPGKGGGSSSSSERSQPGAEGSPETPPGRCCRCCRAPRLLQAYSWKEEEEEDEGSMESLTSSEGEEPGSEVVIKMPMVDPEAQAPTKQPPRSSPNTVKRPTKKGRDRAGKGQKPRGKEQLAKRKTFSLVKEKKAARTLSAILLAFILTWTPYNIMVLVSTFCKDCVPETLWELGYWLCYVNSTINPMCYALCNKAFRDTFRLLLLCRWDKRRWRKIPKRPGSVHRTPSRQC

Endothelin-1 receptor = molecular target: T4, Endothelin-1 receptor (Homo sapiens, UniProt P25101)
T4 sequence (P25101 whole entry): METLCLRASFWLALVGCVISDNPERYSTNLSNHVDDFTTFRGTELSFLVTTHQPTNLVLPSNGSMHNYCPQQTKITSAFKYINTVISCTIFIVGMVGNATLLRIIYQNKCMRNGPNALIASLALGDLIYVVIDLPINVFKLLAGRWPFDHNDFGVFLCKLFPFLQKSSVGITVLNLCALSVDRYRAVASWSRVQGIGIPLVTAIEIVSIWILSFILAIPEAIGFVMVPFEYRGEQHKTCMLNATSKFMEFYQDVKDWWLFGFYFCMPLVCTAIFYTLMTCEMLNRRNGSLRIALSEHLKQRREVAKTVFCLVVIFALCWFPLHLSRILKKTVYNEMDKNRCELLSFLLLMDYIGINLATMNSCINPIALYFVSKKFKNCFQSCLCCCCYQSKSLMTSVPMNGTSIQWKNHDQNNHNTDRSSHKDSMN

[5] = molecular target: Sodium-dependent dopamine transporter (Homo sapiens, UniProt Q01959)
Sodium-dependent dopamine transporter, sequence (Q01959 whole entry): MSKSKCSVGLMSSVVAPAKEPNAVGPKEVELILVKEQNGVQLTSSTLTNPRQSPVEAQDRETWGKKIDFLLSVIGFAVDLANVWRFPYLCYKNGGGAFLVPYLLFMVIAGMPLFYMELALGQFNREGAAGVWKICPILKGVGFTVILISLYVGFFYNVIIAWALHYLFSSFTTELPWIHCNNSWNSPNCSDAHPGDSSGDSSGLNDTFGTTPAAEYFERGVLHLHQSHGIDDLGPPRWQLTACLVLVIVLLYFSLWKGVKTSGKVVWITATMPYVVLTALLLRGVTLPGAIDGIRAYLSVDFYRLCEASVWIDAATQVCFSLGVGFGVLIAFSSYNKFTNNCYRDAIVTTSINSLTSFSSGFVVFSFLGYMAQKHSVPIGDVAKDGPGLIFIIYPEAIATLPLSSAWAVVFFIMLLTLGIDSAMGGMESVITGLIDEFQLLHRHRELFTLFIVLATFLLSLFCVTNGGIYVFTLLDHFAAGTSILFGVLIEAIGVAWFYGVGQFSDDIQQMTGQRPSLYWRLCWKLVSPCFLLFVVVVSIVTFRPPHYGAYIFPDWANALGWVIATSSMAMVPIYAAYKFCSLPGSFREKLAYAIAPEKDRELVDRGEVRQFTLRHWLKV

[6] = molecular target: Voltage-gated inwardly rectifying potassium channel KCNH2 (Homo sapiens, UniProt Q12809); format: functional; conditions: read-out: AC50
Histamine H1 receptor = Histamine H1 receptor (Homo sapiens, UniProt P35367)
Histamine H1 receptor, sequence (P35367 whole entry): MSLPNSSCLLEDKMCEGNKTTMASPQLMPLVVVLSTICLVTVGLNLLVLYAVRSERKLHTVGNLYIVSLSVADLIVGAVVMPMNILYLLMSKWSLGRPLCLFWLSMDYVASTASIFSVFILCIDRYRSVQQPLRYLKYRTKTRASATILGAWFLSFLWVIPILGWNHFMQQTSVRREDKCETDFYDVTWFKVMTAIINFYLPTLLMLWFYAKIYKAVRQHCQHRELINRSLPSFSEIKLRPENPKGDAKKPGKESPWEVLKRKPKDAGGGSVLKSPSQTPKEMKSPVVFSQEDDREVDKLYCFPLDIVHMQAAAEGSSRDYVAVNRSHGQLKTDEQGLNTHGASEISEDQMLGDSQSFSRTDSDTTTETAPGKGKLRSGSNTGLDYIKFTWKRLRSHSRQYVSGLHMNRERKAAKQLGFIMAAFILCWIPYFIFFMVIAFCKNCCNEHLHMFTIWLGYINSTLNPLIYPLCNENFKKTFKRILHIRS

[7] = molecular target: Neuronal acetylcholine receptor subunit alpha-4 (Homo sapiens, UniProt P43681)
Neuronal acetylcholine receptor subunit alpha-4, sequence (P43681 whole entry): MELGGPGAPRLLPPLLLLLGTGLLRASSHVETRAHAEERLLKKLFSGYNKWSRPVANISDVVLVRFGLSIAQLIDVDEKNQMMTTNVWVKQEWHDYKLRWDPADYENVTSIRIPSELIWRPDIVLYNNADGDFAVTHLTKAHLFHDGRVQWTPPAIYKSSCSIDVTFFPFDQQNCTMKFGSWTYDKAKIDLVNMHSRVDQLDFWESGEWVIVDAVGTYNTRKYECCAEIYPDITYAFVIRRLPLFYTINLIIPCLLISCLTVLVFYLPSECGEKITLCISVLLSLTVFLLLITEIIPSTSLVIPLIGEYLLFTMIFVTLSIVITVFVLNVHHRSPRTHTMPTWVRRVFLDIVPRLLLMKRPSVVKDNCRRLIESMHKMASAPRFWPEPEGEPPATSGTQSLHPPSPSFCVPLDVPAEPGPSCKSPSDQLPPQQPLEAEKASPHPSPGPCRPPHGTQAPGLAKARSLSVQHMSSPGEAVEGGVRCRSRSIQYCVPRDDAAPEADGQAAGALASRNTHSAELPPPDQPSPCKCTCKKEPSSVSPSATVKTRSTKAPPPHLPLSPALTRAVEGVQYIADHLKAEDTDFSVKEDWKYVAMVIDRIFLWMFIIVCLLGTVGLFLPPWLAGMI

[8] = molecular target: Gamma-aminobutyric acid receptor subunit alpha-1 (Rattus norvegicus, UniProt P62813)
Gamma-aminobutyric acid receptor subunit alpha-1, sequence (P62813 whole entry): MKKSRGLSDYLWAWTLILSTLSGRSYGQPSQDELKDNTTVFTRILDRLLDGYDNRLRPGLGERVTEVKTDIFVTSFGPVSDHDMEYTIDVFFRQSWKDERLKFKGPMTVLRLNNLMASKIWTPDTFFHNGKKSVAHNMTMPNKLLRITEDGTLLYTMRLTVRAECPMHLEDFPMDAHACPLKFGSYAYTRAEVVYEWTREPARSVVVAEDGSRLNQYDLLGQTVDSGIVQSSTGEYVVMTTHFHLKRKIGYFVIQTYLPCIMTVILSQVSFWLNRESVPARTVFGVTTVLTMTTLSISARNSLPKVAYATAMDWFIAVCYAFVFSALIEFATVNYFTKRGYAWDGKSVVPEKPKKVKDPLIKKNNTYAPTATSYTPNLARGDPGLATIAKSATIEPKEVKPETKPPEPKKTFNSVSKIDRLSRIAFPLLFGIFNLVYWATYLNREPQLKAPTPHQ

[9] = molecular target: T5, Prostaglandin G/H synthase 1 (Rattus norvegicus, UniProt Q63921); format: functional
T5 sequence (Q63921 whole entry): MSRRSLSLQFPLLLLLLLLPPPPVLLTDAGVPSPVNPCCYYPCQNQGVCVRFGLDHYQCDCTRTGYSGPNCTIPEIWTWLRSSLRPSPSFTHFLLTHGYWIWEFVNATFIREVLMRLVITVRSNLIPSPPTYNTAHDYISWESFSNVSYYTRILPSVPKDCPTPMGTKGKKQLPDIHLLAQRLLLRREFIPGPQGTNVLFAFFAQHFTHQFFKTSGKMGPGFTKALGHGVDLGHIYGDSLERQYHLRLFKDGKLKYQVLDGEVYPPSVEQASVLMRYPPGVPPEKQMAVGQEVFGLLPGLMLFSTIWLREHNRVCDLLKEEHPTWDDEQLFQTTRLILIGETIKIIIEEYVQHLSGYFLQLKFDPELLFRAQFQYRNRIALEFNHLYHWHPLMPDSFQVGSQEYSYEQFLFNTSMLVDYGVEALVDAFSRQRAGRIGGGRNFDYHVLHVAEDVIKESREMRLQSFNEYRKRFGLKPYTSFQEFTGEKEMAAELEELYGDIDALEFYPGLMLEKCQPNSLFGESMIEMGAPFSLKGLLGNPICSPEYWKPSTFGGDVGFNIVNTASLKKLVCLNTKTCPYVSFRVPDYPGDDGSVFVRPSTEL
Note: assay procedure not described here.

Voltage-dependent L-type calcium channel subunit alpha-1C, sequence (P22002 whole entry): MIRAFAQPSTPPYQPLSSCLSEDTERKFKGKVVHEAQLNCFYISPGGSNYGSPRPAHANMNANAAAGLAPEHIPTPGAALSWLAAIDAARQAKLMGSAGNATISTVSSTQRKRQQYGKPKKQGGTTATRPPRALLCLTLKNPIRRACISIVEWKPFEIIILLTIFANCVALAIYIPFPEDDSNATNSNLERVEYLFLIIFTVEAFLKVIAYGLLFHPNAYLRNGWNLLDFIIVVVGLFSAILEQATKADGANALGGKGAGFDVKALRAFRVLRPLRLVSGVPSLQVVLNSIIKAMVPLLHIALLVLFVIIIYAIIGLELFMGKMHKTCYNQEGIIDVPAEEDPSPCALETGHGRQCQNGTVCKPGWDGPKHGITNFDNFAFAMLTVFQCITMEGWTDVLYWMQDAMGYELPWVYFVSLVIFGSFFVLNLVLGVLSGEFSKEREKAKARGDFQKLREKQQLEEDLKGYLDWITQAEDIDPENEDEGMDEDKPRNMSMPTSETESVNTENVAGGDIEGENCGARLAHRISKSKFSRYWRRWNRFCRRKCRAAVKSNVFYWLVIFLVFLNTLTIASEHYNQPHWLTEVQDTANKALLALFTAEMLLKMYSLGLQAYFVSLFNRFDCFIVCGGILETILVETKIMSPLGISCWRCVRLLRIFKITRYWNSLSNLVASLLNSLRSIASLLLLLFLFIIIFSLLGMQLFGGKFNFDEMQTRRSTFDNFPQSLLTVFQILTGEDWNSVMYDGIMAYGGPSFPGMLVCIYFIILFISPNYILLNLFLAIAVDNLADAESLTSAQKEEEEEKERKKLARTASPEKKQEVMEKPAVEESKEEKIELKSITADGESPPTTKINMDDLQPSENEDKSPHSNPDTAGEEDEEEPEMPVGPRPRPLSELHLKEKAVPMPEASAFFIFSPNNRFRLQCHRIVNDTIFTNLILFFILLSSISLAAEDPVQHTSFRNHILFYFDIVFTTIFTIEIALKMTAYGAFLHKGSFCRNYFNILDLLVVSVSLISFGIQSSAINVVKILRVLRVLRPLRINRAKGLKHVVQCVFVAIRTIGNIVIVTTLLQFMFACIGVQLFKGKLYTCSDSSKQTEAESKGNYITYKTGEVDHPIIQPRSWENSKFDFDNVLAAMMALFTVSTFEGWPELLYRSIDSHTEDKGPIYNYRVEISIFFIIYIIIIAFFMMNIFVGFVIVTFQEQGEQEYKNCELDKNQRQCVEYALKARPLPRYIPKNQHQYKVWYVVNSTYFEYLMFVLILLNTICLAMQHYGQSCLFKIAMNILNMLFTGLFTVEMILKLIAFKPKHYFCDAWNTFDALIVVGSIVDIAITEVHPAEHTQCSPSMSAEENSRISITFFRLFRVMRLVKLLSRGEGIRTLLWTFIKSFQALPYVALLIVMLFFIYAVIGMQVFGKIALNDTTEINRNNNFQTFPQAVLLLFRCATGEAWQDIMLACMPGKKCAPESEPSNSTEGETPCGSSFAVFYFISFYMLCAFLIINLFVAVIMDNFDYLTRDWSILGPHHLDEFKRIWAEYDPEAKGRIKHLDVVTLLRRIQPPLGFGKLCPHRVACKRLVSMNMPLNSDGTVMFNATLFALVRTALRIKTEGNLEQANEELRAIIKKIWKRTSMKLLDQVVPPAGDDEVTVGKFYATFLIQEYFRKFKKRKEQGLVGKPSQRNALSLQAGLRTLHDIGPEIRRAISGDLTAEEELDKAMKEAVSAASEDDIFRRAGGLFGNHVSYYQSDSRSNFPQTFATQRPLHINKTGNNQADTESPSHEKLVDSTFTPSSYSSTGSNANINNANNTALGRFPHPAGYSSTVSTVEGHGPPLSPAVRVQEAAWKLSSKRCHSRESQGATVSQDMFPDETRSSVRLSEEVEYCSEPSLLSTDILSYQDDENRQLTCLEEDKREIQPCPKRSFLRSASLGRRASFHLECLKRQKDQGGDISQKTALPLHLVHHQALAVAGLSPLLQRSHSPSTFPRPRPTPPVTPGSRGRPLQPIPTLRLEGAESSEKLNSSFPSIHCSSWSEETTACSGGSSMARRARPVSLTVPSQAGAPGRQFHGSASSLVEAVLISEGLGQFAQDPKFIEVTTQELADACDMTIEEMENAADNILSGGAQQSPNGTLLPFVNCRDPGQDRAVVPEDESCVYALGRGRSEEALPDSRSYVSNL

Q: For `CCCCc1ncc(/C=C(\Cc2cccs2)C(=O)O)n1Cc1ccc(C(=O)O)cc1` [EPROSARTAN], which AC50 [1] is on record?
A: > 10 µM

Q: And the AC50 [2]?
A: > 10 µM

Q: What about the AC50 [3] of the same compound?
A: > 10 µM

Q: What about the AC50 (B2 bradykinin receptor) of the same compound?
A: > 30 µM

Q: What about the AC50 (Melanocortin receptor 3) of the same compound?
A: > 10 µM

Q: What about the AC50 [4] of the same compound?
A: > 10 µM

Q: What about the AC50 (Endothelin-1 receptor) of the same compound?
A: > 30 µM

Q: And the AC50 [5]?
A: > 30 µM

Q: What about the AC50 [6] of the same compound?
A: > 30 µM

Q: And the AC50 (Histamine H1 receptor)?
A: > 10 µM

Q: What about the AC50 [7] of the same compound?
A: > 10 µM

Q: And the AC50 [8]?
A: > 10 µM

Q: What about the AC50 [9] of the same compound?
A: > 30 µM

Q: How did the AC50 [1] turn out when `CC(=O)OCC(=O)[C@@]12N=C(C)O[C@@H]1C[C@H]1[C@@H]3CCC4=CC(=O)C=C[C@]4(C)[C@H]3[C@@H](O)C[C@@]12C` [DEFLAZACORT] was run?
A: > 30 µM

Q: And the AC50 [2]?
A: > 30 µM

Q: And the AC50 [3]?
A: > 30 µM

Q: What about the AC50 (B2 bradykinin receptor) of the same compound?
A: > 30 µM

Q: And the AC50 (Melanocortin receptor 3)?
A: > 30 µM

Q: And the AC50 [4]?
A: > 30 µM

Q: What about the AC50 (Endothelin-1 receptor) of the same compound?
A: > 30 µM

Q: What about the AC50 [5] of the same compound?
A: > 30 µM

Q: And the AC50 [6]?
A: > 30 µM

Q: And the AC50 (Histamine H1 receptor)?
A: > 30 µM

Q: What about the AC50 [7] of the same compound?
A: > 30 µM

Q: What about the AC50 [8] of the same compound?
A: > 30 µM

Q: And the AC50 [9]?
A: > 30 µM

Q: `COc1ccccc1OCCNCC(O)c1ccc(C)c(S(N)(=O)=O)c1` (configuration not stated) [AMOSULALOL] was tested. Which AC50 [1] did it give?
A: > 30 µM

Q: And the AC50 [2]?
A: > 30 µM

Q: What about the AC50 [3] of the same compound?
A: > 30 µM

Q: What about the AC50 (B2 bradykinin receptor) of the same compound?
A: > 30 µM

Q: And the AC50 (Melanocortin receptor 3)?
A: > 30 µM

Q: What about the AC50 [4] of the same compound?
A: > 30 µM

Q: And the AC50 (Endothelin-1 receptor)?
A: > 30 µM

Q: What about the AC50 [5] of the same compound?
A: > 30 µM

Q: What about the AC50 [6] of the same compound?
A: 15 µM

Q: And the AC50 (Histamine H1 receptor)?
A: 16 µM

Q: What about the AC50 [7] of the same compound?
A: > 30 µM

Q: And the AC50 [8]?
A: > 30 µM

Q: What about the AC50 [9] of the same compound?
A: > 30 µM

Q: For `COc1ccc(-c2ccc3cc(C(=O)O)ccc3c2)cc1C12CC3CC(CC(C3)C1)C2`, which AC50 [1] is on record?
A: 1.5 µM

Q: What about the AC50 [2] of the same compound?
A: > 30 µM

Q: What about the AC50 [3] of the same compound?
A: > 30 µM

Q: What about the AC50 (B2 bradykinin receptor) of the same compound?
A: > 30 µM

Q: What about the AC50 (Melanocortin receptor 3) of the same compound?
A: > 30 µM

Q: And the AC50 [4]?
A: > 30 µM

Q: And the AC50 (Endothelin-1 receptor)?
A: > 30 µM

Q: And the AC50 [5]?
A: > 30 µM

Q: And the AC50 [6]?
A: > 30 µM

Q: And the AC50 (Histamine H1 receptor)?
A: > 30 µM

Q: What about the AC50 [7] of the same compound?
A: > 30 µM

Q: And the AC50 [8]?
A: > 30 µM

Q: And the AC50 [9]?
A: > 30 µM

Q: With `CCCCCCOc1ccccc1C(N)=O` [EXALAMIDE] as the compound, how does the AC50 [1] read?
A: > 30 µM

Q: And the AC50 [2]?
A: > 30 µM

Q: And the AC50 [3]?
A: > 30 µM

Q: And the AC50 (B2 bradykinin receptor)?
A: > 30 µM

Q: What about the AC50 (Melanocortin receptor 3) of the same compound?
A: > 30 µM

Q: And the AC50 [4]?
A: > 30 µM

Q: And the AC50 (Endothelin-1 receptor)?
A: > 30 µM

Q: What about the AC50 [5] of the same compound?
A: 14 µM

Q: And the AC50 [6]?
A: > 30 µM

Q: What about the AC50 (Histamine H1 receptor) of the same compound?
A: > 30 µM

Q: And the AC50 [7]?
A: > 30 µM

Q: And the AC50 [8]?
A: > 30 µM

Q: What about the AC50 [9] of the same compound?
A: > 30 µM

Q: Which results are given for `COc1cc2c(N)nc(N3CCN(C(=O)OCC(C)(C)O)CC3)nc2c(OC)c1OC` [TRIMAZOSIN]?
A: AC50 [1]: > 30 µM; AC50 [2]: > 30 µM; AC50 [3]: > 30 µM; AC50 (B2 bradykinin receptor): > 30 µM; AC50 (Melanocortin receptor 3): > 30 µM; AC50 [4]: > 30 µM; AC50 (Endothelin-1 receptor): > 30 µM; AC50 [5]: > 30 µM; AC50 [6]: 17 µM; AC50 (Histamine H1 receptor): > 30 µM; AC50 [7]: > 30 µM; AC50 [8]: > 30 µM; AC50 [9]: > 30 µM

Q: For `COc1ccc2c3c1O[C@H]1C(=O)CC[C@@]4(O)[C@@H](C2)N(C)CC[C@]314` [OXYCODONE], which AC50 [1] is on record?
A: > 30 µM

Q: And the AC50 [2]?
A: > 30 µM

Q: What about the AC50 [3] of the same compound?
A: > 30 µM

Q: And the AC50 (B2 bradykinin receptor)?
A: > 30 µM

Q: What about the AC50 (Melanocortin receptor 3) of the same compound?
A: > 30 µM

Q: And the AC50 [4]?
A: > 30 µM

Q: What about the AC50 (Endothelin-1 receptor) of the same compound?
A: > 30 µM

Q: What about the AC50 [5] of the same compound?
A: > 30 µM

Q: And the AC50 [6]?
A: > 30 µM

Q: What about the AC50 (Histamine H1 receptor) of the same compound?
A: > 30 µM

Q: And the AC50 [7]?
A: > 30 µM

Q: What about the AC50 [8] of the same compound?
A: > 30 µM

Q: What about the AC50 [9] of the same compound?
A: > 30 µM

Q: Which results are given for `COC(=O)C1=C(C)NC(C)=C(C(=O)OC2CCCN(Cc3ccccc3)C2)C1c1cccc([N+](=O)[O-])c1` (configuration not stated) [BENIDIPINE]?
A: AC50 [1]: 0.014 µM; AC50 [2]: > 30 µM; AC50 [3]: > 30 µM; AC50 (B2 bradykinin receptor): > 30 µM; AC50 (Melanocortin receptor 3): > 30 µM; AC50 [4]: 18 µM; AC50 (Endothelin-1 receptor): > 30 µM; AC50 [5]: 12 µM; AC50 [6]: 2.01 µM; AC50 (Histamine H1 receptor): 27 µM; AC50 [7]: > 30 µM; AC50 [8]: > 30 µM; AC50 [9]: > 30 µM

Q: What does the source list for `CC(C)(C)C(=O)Oc1ccc(S(=O)(=O)Nc2ccccc2C(=O)NCC(=O)O)cc1`?
A: AC50 [1]: > 30 µM; AC50 [2]: > 30 µM; AC50 [3]: > 30 µM; AC50 (B2 bradykinin receptor): > 30 µM; AC50 (Melanocortin receptor 3): > 30 µM; AC50 [4]: > 30 µM; AC50 (Endothelin-1 receptor): > 30 µM; AC50 [5]: > 30 µM; AC50 [6]: > 30 µM; AC50 (Histamine H1 receptor): > 30 µM; AC50 [7]: > 30 µM; AC50 [8]: > 30 µM; AC50 [9]: > 30 µM
